# Assay results as given in the supplement of paper PMC10307832.
# Experiments:
# Test in all cases: relative viability (nuclei count vs DMSO), 5 days (fraction); higher = more cells survive
# [1] = compound: COc1cc2nc(N3CCCN(C)CC3)nc(NC3CCN(Cc4ccccc4)CC3)c2cc1OC + NC(=O)Nc1cc(-c2cccc(F)c2)sc1C(=O)N[C@H]1CCCNC1 [AZD7762] (partner 0.2 µM)
# In short: (§1)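 For relative viability, nuclei counts in treated wells were divided by those in vehicle wells. Lung cancer cell lines had been pin-tool dosed in 1536-well plates the day after seeding and cultured for 5 days, then fixed and stained in one step (final 0.05% Triton X-100, 1% formaldehyde, 1 ug/ml Hoechst) and imaged at 4×. Doses were one drug alone or a fixed anchor-drug dose plus five library-drug doses (not always all listed) in √10 steps, and values are duplicate-plate medians.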
# [2] = compound: COc1cc2nc(N3CCCN(C)CC3)nc(NC3CCN(Cc4ccccc4)CC3)c2cc1OC + CCNC(=O)c1noc(-c2cc(C(C)C)c(O)cc2O)c1-c1ccc(CN2CCOCC2)cc1 [Luminespib] (partner 0.01 µM)
# In short: as §1
# AZD6482 + Palbociclib = compound: Cc1cc([C@@H](C)Nc2ccccc2C(=O)O)c2nc(N3CCOCC3)cc(=O)n2c1 [AZD6482] + CC(=O)c1c(C)c2cnc(Nc3ccc(N4CCNCC4)cn3)nc2n(C2CCCC2)c1=O [Palbociclib] (partner 0.5 µM)
# In short: as §1
# [3] = compound: COc1cc2nc(N3CCCN(C)CC3)nc(NC3CCN(Cc4ccccc4)CC3)c2cc1OC + CC(=O)c1c(C)c2cnc(Nc3ccc(N4CCNCC4)cn3)nc2n(C2CCCC2)c1=O [Palbociclib] (partner 0.5 µM)
# In short: as §1
Cell Line,relative viability ([1]; first compound 0.2 µM),relative viability ([1]; first compound 0.6325 µM),relative viability ([1]; first compound 2 µM),relative viability ([1]; first compound 6.325 µM),relative viability ([2]; first compound 0.2 µM),relative viability ([2]; first compound 0.6325 µM),relative viability ([2]; first compound 2 µM),relative viability ([2]; first compound 6.325 µM),relative viability (AZD6482 + Palbociclib; first compound 0.08 µM),relative viability (AZD6482 + Palbociclib; first compound 0.253 µM),relative viability (AZD6482 + Palbociclib; first compound 0.8 µM),relative viability (AZD6482 + Palbociclib; first compound 2.53 µM),relative viability (AZD6482 + Palbociclib; first compound 8 µM),relative viability ([3]; first compound 0.2 µM),relative viability ([3]; first compound 0.6325 µM),relative viability ([3]; first compound 2 µM),relative viability ([3]; first compound 6.325 µM)
HARA,0.306,0.337,0.453,0.266,0.703,0.467,0.744,0.736,0.182,0.199,0.368,0.247,0.171,0.21,0.312,0.252,0.278
NCI-H1395,0.413,0.446,0.37,0.335,0.7,0.695,0.7,0.71,0.49,0.486,0.482,0.401,0.456,0.642,0.605,0.618,0.565
LU99A,0.383,0.314,0.301,0.285,0.258,0.246,0.225,0.231,0.373,0.368,0.397,0.353,0.311,0.379,0.38,0.371,0.412
NCI-H1355,0.738,0.693,0.941,0.661,0.715,0.693,0.734,0.773,0.294,0.374,0.32,0.279,0.286,0.404,0.379,0.423,0.386
HCC-15,1.28,1.2,1.15,1.34,0.174,0.205,0.342,0.241,0.652,0.631,0.77,0.676,0.633,0.741,0.802,0.83,0.69
EKVX,0.795,0.713,0.815,0.657,0.829,0.878,0.831,0.888,0.283,0.325,0.342,0.279,0.298,0.407,0.412,0.395,0.301
NCI-H2087,1.48,1.18,1.46,1.22,0.188,0.162,0.364,0.136,0.235,0.223,0.209,0.185,0.207,0.233,0.201,0.219,0.215
LK-2,0.463,0.487,0.506,0.249,0.188,0.188,0.164,0.186,0.732,0.698,0.688,0.54,0.342,0.658,0.884,0.841,0.598
NCI-H1437,1.15,1.17,1.17,1.17,1.12,1.06,1.21,0.965,0.353,0.319,0.36,0.316,0.24,0.29,0.319,0.32,0.279
ABC-1,0.753,0.772,0.79,0.91,0.588,0.52,0.512,0.737,0.603,0.79,0.664,0.662,0.544,0.718,0.682,0.754,0.6
NCI-H522,0.901,0.791,0.986,0.792,1.03,1.23,1.32,1.12,1.07,0.933,0.691,0.805,0.825,0.716,1.18,0.859,0.915
NCI-H838,0.974,0.908,1.01,0.892,0.378,0.324,0.296,0.294,0.167,0.203,0.204,0.167,0.163,0.185,0.229,0.213,0.212
SW 900,0.62,0.564,0.611,0.577,0.143,0.188,0.18,0.156,0.474,0.434,0.348,0.355,0.389,0.538,0.442,0.566,0.46
A-427,0.785,0.681,0.756,0.775,0.934,0.784,0.8,0.997,0.462,0.528,0.495,0.502,0.553,0.533,0.503,0.521,0.485
NCI-H1792,0.778,0.591,0.76,0.58,–,0.377,0.419,0.721,0.593,0.611,0.648,0.561,0.512,0.637,0.654,0.609,0.685
LCLC-97TM1,0.335,0.269,0.297,0.277,0.79,0.73,0.822,0.777,0.167,0.225,0.188,–,0.172,0.219,0.231,0.254,0.238
LCLC-103H,0.814,0.719,0.903,0.832,0.905,1.08,0.976,1.01,0.48,0.475,0.47,0.265,0.353,0.479,0.47,0.452,0.444
PC-3 [JPC-3],0.692,1.06,0.874,0.685,0.753,0.675,0.745,0.585,0.559,0.564,0.528,0.572,0.534,0.542,0.591,0.578,0.468
BEN,0.8,0.82,0.752,0.736,0.415,0.737,0.264,0.516,0.442,0.452,0.446,0.449,0.466,0.437,0.471,0.473,0.476
